In the assay the target is Cdc42 (Homo sapiens, UniProt P60953). Kind of assay: equilibrium binding by flow cytometry on beads.
Sequence of Cdc42 (P60953 1-188): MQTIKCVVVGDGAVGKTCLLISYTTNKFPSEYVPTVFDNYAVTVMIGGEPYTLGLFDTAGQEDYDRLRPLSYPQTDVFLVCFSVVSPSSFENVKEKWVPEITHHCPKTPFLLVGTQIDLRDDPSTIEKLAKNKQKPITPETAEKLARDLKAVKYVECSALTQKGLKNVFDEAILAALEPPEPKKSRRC

`Cc1cc(C)n2c1C=C1C=CC(CCC(=O)NCCNC(=O)OC3C(COP(=O)(O)OP(=O)(O)OP(=O)(O)O)OC(n4cnc5c(=O)[nH]c(N)nc54)C3O)=[N+]1[B-]2(F)F` (stereo not shown) [BODIPY-FL-GTP]: the Kd stood at 0.6 nM.
